Experiments:
[1] = biological target: Activated CDC42 kinase 1 (Homo sapiens) (UniProt Q07912); assay: Inhibition of ACK1(h) at 10.0 µM in the Eurofins Kinase panel; conditions: Compound concentration 10.0 uM
[2] = biological target: CDK6/cyclin D3 (Homo sapiens) (UniProt P30281+Q00534); assay: Inhibition of CDK6/cyclinD3(h) at 10.0 µM in the Eurofins Kinase panel; format: protein-complex assay; conditions: Compound concentration 10.0 uM
[3] = biological target: Cyclin-dependent kinase-like 4 (Homo sapiens) (UniProt Q5MAI5); assay: Inhibition of CDKL4(h) at 10.0 µM in the Eurofins Kinase panel; conditions: Compound concentration 10.0 uM
[4] = biological target: Casein kinase I isoform gamma-2 (Homo sapiens) (UniProt P78368); assay: Inhibition of CK1gamma2(h) at 10.0 µM in the Eurofins Kinase panel; conditions: Compound concentration 10.0 uM
[5] = biological target: Tyrosine-protein kinase CSK (Homo sapiens) (UniProt P41240); assay: Inhibition of CSK(h) at 10.0 µM in the Eurofins Kinase panel; conditions: Compound concentration 10.0 uM
[6] = biological target: Epithelial discoidin domain-containing receptor 1 (Homo sapiens) (UniProt Q08345); assay: Inhibition of DDR1(h) at 10.0 µM in the Eurofins Kinase panel; conditions: Compound concentration 10.0 uM
[7] = biological target: Dual specificity tyrosine-phosphorylation-regulated kinase 3 (Homo sapiens) (UniProt O43781); assay: Inhibition of DYRK3(h) at 10.0 µM in the Eurofins Kinase panel; conditions: Compound concentration 10.0 uM
[8] = biological target: Fibroblast growth factor receptor 2 (Homo sapiens) (UniProt P21802); assay: Inhibition of FGFR2(h) at 10.0 µM in the Eurofins Kinase panel; conditions: Compound concentration 10.0 uM
[9] = biological target: Cyclin-G-associated kinase (Homo sapiens) (UniProt O14976); assay: Inhibition of GAK(h) at 10.0 µM in the Eurofins Kinase panel; conditions: Compound concentration 10.0 uM
[10] = biological target: G protein-coupled receptor kinase 5 (Homo sapiens) (UniProt P34947); assay: Inhibition of GRK5(h) at 10.0 µM in the Eurofins Kinase panel; conditions: Compound concentration 10.0 uM
[11] = biological target: Serine/threonine-protein kinase haspin (Homo sapiens) (UniProt Q8TF76); assay: Inhibition of Haspin(h) at 10.0 µM in the Eurofins Kinase panel; conditions: Compound concentration 10.0 uM
[12] = biological target: Tyrosine-protein kinase HCK (Homo sapiens) (UniProt P08631); assay: Inhibition of Hck(h) activated at 10.0 µM in the Eurofins Kinase panel; conditions: Compound concentration 10.0 uM
[13] = biological target: Mitogen-activated protein kinase 9 (Homo sapiens) (UniProt P45984); assay: Inhibition of JNK2alpha2(h) at 10.0 µM in the Eurofins Kinase panel; conditions: Compound concentration 10.0 uM
[14] = biological target: Mitogen-activated protein kinase kinase kinase 11 (Homo sapiens) (UniProt Q16584); assay: Inhibition of MLK3(h) at 10.0 µM in the Eurofins Kinase panel; conditions: Compound concentration 10.0 uM
[15] = biological target: SRSF protein kinase 3 (Homo sapiens) (UniProt Q9UPE1); assay: Inhibition of MSSK1(h) at 10.0 µM in the Eurofins Kinase panel; conditions: Compound concentration 10.0 uM
[16] = biological target: Serine/threonine-protein kinase Nek2 (Homo sapiens) (UniProt P51955); assay: Inhibition of NEK2(h) at 10.0 µM in the Eurofins Kinase panel; conditions: Compound concentration 10.0 uM
[17] = biological target: Serine/threonine-protein kinase Nek5 (Homo sapiens) (UniProt Q6P3R8); assay: Inhibition of NEK5(h) at 10.0 µM in the Eurofins Kinase panel; conditions: Compound concentration 10.0 uM
[18] = biological target: Serine/threonine-protein kinase pim-1 (Homo sapiens) (UniProt P11309); assay: Inhibition of Pim-1(h) at 10.0 µM in the Eurofins Kinase panel; conditions: Compound concentration 10.0 uM
[19] = biological target: Serine/threonine-protein kinase pim-3 (Homo sapiens) (UniProt Q86V86); assay: Inhibition of Pim-3(h) at 10.0 µM in the Eurofins Kinase panel; conditions: Compound concentration 10.0 uM
[20] = biological target: cAMP-dependent protein kinase (PKA) (Homo sapiens) (UniProt P22694+P17612+P22612); assay: Inhibition of PKA(h) at 10.0 µM in the Eurofins Kinase panel; format: protein assay; conditions: Compound concentration 10.0 uM
[21] = biological target: Serine/threonine-protein kinase N2 (Homo sapiens) (UniProt Q16513); assay: Inhibition of PRK2(h) at 10.0 µM in the Eurofins Kinase panel; conditions: Compound concentration 10.0 uM
[22] = biological target: cGMP-dependent protein kinase 2 (Homo sapiens) (UniProt Q13237); assay: Inhibition of PRKG2(h) at 10.0 µM in the Eurofins Kinase panel; conditions: Compound concentration 10.0 uM
[23] = biological target: cAMP-dependent protein kinase catalytic subunit PRKX (Homo sapiens) (UniProt P51817); assay: Inhibition of PrKX(h) at 10.0 µM in the Eurofins Kinase panel; conditions: Compound concentration 10.0 uM
[24] = biological target: Mitogen-activated protein kinase 12 (Homo sapiens) (UniProt P53778); assay: Inhibition of SAPK3(h) at 10.0 µM in the Eurofins Kinase panel; conditions: Compound concentration 10.0 uM
[25] = biological target: Serine/threonine-protein kinase Sgk3 (Homo sapiens) (UniProt Q96BR1); assay: Inhibition of SGK3(h) at 10.0 µM in the Eurofins Kinase panel; conditions: Compound concentration 10.0 uM
[26] = biological target: Serine/threonine-protein kinase SIK2 (Homo sapiens) (UniProt Q9H0K1); assay: Inhibition of SIK2(h) at 10.0 µM in the Eurofins Kinase panel; conditions: Compound concentration 10.0 uM
[27] = biological target: Serine/threonine-protein kinase 16 (Homo sapiens) (UniProt O75716); assay: Inhibition of STK16(h) at 10.0 µM in the Eurofins Kinase panel; conditions: Compound concentration 10.0 uM
[28] = biological target: Serine/threonine-protein kinase TAO2 (Homo sapiens) (UniProt Q9UL54); assay: Inhibition of TAO2(h) at 10.0 µM in the Eurofins Kinase panel; conditions: Compound concentration 10.0 uM
[29] = biological target: Serine/threonine-protein kinase TBK1 (Homo sapiens) (UniProt Q9UHD2); assay: Inhibition of TBK1(h) at 10.0 µM in the Eurofins Kinase panel; conditions: Compound concentration 10.0 uM
[30] = biological target: TGF-beta receptor type-1 (Homo sapiens) (UniProt P36897); assay: Inhibition of TGFBR1(h) at 10.0 µM in the Eurofins Kinase panel; conditions: Compound concentration 10.0 uM
[31] = biological target: NT-3 growth factor receptor (Homo sapiens) (UniProt Q16288); assay: Inhibition of TrkC(h) at 10.0 µM in the Eurofins Kinase panel; conditions: Compound concentration 10.0 uM
[32] = biological target: Serine/threonine-protein kinase WNK4 (Homo sapiens) (UniProt Q96J92); assay: Inhibition of WNK4(h) at 10.0 µM in the Eurofins Kinase panel; conditions: Compound concentration 10.0 uM
[33] = biological target: 5-hydroxytryptamine receptor 1B (Homo sapiens) (UniProt P28222); conditions: Compound concentration 10.0 uM
[34] = biological target: 5-hydroxytryptamine receptor 5A (Homo sapiens) (UniProt P47898); conditions: Compound concentration 10.0 uM
[35] = biological target: Sigma non-opioid intracellular receptor 1 (Homo sapiens) (UniProt Q99720); conditions: Compound concentration 10.0 uM
[36] = biological target: D(3) dopamine receptor (Homo sapiens) (UniProt P35462); conditions: Compound concentration 10.0 uM
[37] = biological target: GABA-A receptor; anion channel (Rattus norvegicus) (UniProt O09028+P15431+P18506+P18508+P19969+P20236+P23574+P23576+P28471+P28473+P30191+P62813+P63079+P63138+Q91ZM7+Q9ES14); conditions: Compound concentration 10.0 uM
[38] = biological target: Insulin receptor (Homo sapiens) (UniProt P06213); conditions: Rattus norvegicus; Compound concentration 10.0 uM

Sequence of 5-hydroxytryptamine receptor 5A (Homo sapiens) (P47898 whole entry): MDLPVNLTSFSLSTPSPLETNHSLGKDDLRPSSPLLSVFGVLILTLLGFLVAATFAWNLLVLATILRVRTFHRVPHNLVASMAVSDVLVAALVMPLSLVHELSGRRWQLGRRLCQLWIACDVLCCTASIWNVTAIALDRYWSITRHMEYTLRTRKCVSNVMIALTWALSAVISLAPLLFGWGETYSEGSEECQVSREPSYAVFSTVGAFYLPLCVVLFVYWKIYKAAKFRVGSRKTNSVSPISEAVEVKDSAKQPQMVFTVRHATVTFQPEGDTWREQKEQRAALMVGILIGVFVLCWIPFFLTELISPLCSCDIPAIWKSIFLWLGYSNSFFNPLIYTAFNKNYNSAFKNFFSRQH
Sequence of 5-hydroxytryptamine receptor 1B (Homo sapiens) (P28222 whole entry): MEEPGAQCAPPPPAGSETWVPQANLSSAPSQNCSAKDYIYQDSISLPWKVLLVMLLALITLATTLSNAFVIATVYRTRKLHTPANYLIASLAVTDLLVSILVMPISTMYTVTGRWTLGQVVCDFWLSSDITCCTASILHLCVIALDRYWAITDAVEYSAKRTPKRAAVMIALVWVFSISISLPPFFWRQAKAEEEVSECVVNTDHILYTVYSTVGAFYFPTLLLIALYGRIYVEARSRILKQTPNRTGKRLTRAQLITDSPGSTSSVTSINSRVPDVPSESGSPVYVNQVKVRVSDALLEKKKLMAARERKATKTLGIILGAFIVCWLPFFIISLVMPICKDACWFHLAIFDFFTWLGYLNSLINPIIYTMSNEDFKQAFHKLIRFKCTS
Sequence of Sigma non-opioid intracellular receptor 1 (Homo sapiens) (Q99720 whole entry): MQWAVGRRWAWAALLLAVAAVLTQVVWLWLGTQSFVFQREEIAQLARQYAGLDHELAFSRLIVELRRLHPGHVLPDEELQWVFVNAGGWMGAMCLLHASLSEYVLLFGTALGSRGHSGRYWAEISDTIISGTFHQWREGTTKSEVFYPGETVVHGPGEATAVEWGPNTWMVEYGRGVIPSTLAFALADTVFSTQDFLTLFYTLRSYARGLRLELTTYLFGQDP
Sequence of Mitogen-activated protein kinase 12 (Homo sapiens) (P53778 whole entry): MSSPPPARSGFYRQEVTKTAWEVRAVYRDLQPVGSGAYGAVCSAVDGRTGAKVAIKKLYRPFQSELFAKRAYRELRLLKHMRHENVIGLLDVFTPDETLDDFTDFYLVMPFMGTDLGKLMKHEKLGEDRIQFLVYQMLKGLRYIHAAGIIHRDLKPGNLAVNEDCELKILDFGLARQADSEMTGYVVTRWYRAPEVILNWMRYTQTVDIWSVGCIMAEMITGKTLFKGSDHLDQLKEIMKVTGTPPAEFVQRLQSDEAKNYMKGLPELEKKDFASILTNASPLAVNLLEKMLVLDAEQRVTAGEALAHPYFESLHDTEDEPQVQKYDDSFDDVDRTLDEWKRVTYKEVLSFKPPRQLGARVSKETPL
Sequence of Serine/threonine-protein kinase WNK4 (Homo sapiens) (Q96J92 whole entry): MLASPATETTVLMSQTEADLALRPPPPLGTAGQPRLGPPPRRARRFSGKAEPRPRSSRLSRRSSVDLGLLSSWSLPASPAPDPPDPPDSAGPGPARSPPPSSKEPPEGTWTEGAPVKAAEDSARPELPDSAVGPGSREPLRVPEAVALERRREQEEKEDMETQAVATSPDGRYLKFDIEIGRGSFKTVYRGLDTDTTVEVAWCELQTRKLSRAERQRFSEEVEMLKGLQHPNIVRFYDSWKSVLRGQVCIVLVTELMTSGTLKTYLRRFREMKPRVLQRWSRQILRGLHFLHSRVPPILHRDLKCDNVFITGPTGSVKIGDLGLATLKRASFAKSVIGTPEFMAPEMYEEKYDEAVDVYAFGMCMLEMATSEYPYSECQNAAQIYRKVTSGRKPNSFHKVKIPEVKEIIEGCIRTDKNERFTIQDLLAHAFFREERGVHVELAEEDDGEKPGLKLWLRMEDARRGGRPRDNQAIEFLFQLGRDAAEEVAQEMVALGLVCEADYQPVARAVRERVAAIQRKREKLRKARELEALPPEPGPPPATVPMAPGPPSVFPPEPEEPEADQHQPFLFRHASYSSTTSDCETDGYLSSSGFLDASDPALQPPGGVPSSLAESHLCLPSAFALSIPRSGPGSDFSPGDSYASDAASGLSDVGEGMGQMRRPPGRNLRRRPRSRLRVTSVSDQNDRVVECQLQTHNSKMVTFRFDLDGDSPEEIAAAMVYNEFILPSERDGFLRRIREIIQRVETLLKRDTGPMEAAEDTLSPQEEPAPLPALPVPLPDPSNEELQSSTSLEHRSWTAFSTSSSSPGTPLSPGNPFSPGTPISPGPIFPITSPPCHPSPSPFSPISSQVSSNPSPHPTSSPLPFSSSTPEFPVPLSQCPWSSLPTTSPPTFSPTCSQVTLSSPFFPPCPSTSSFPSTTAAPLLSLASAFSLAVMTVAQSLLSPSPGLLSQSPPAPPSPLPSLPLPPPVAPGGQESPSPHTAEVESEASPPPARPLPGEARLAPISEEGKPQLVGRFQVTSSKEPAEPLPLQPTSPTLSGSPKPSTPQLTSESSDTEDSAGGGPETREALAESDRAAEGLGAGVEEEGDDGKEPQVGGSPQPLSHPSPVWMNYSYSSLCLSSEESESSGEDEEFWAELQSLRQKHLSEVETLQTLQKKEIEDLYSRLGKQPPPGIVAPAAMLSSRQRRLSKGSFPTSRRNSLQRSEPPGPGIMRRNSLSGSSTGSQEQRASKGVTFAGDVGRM
Sequence of Serine/threonine-protein kinase TAO2 (Homo sapiens) (Q9UL54 whole entry): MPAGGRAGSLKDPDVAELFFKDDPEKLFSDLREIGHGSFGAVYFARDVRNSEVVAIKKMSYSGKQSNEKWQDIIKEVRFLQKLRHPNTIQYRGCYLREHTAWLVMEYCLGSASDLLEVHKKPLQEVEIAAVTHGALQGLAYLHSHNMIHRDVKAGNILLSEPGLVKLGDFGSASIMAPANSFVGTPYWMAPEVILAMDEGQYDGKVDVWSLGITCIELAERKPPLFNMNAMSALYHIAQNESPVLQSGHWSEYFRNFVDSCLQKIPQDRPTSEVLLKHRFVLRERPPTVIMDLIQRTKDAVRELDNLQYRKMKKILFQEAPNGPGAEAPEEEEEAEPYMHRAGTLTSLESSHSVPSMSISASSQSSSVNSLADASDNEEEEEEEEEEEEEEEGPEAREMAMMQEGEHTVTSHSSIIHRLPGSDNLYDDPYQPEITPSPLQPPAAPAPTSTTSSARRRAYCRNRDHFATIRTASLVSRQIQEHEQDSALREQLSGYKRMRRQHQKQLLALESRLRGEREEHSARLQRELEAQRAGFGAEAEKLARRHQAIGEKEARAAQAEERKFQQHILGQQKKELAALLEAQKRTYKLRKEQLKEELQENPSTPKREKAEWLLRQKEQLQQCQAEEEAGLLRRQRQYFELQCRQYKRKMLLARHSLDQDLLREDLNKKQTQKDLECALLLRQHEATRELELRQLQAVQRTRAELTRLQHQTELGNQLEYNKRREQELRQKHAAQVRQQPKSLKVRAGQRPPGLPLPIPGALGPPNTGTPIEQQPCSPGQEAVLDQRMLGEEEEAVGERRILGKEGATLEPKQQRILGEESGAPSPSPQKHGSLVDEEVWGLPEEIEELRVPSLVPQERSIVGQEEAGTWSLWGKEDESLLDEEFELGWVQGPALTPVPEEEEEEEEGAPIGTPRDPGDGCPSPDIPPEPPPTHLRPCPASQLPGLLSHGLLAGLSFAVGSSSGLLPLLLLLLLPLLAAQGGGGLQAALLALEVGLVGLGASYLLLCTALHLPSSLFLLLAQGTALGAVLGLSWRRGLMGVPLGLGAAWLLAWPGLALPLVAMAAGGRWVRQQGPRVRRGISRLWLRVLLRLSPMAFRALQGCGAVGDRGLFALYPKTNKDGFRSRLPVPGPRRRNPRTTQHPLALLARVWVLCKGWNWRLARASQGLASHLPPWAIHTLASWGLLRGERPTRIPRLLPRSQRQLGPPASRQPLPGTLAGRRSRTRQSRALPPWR
Sequence of Cyclin-dependent kinase-like 4 (Homo sapiens) (Q5MAI5 whole entry, canonical isoform): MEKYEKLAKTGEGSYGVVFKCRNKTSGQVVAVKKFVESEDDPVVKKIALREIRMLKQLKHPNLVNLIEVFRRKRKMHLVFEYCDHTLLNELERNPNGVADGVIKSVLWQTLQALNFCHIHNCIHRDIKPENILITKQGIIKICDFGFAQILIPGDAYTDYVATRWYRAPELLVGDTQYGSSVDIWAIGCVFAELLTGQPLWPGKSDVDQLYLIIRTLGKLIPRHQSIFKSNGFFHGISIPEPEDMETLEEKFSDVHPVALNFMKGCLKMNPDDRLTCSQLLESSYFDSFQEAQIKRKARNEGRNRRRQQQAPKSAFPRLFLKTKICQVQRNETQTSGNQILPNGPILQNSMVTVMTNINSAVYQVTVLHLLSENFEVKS
Sequence of Tyrosine-protein kinase CSK (Homo sapiens) (P41240 2-450 limits assumed): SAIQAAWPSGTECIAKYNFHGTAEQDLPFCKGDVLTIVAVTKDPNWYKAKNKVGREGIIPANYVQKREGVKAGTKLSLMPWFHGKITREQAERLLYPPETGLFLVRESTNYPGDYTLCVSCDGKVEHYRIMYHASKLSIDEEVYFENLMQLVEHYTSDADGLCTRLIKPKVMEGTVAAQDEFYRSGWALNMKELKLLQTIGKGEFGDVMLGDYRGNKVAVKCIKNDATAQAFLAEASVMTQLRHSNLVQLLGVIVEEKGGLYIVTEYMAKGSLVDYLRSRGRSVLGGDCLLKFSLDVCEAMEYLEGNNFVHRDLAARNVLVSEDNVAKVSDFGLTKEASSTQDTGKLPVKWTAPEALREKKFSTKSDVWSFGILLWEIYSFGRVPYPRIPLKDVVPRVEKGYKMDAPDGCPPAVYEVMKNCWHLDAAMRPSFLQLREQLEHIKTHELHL
Sequence of Serine/threonine-protein kinase 16 (Homo sapiens) (O75716 whole entry): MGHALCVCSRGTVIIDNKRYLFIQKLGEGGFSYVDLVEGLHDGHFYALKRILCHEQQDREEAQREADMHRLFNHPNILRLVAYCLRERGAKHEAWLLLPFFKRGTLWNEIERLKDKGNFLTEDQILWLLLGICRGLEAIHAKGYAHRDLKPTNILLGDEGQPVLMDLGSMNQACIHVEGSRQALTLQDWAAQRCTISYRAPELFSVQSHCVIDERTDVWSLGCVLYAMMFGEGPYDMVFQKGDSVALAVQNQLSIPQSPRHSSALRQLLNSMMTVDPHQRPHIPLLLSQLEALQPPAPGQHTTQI

With `O=c1n(Cc2cncn2-c2cccc(Cl)c2)nc(-c2ccc(Cl)cc2)n1C[C@H](O)C(F)(F)F` as the compound, how does the inhibition [1] read?
Its inhibition is 8.43%.

What about the inhibition [2] of the same compound?
Its inhibition is 0.27%.

What about the inhibition [3] of the same compound?
Its inhibition is -1.89%.

What about the inhibition [4] of the same compound?
Its inhibition is -1.25%.

What about the inhibition [5] of the same compound?
Its inhibition is -8.53%.

What about the inhibition [6] of the same compound?
The inhibition was 0.92%.

And the inhibition [7]?
Its inhibition is -6.33%.

And the inhibition [8]?
The inhibition was -6.43%.

What about the inhibition [9] of the same compound?
Its inhibition is 0.33%.

What about the inhibition [10] of the same compound?
The inhibition was -0.58%.

And the inhibition [11]?
The inhibition was -2.75%.

What about the inhibition [12] of the same compound?
The inhibition was -9.4%.

And the inhibition [13]?
The inhibition was 2.28%.

What about the inhibition [14] of the same compound?
The inhibition was 14.9%.

What about the inhibition [15] of the same compound?
Its inhibition is 9.31%.

And the inhibition [16]?
The inhibition was -1.06%.

What about the inhibition [17] of the same compound?
The inhibition was 8.71%.

And the inhibition [18]?
Its inhibition is 6.13%.

What about the inhibition [19] of the same compound?
Its inhibition is 4.9%.

What about the inhibition [20] of the same compound?
The inhibition was 2.56%.

What about the inhibition [21] of the same compound?
The inhibition was 27.4%.

And the inhibition [22]?
The inhibition was -3.28%.

What about the inhibition [23] of the same compound?
Its inhibition is 6.15%.

And the inhibition [24]?
Its inhibition is -3.96%.

And the inhibition [25]?
Its inhibition is -5.09%.

What about the inhibition [26] of the same compound?
Its inhibition is 1.82%.

And the inhibition [27]?
The inhibition was -0.13%.

And the inhibition [28]?
Its inhibition is -6.37%.

What about the inhibition [29] of the same compound?
The inhibition was 7.19%.

What about the inhibition [30] of the same compound?
Its inhibition is 3.39%.

And the inhibition [31]?
Its inhibition is 0.07%.

And the inhibition [32]?
Its inhibition is 2.45%.

And the inhibition [33]?
Its inhibition is 7.15%.

What about the inhibition [34] of the same compound?
Its inhibition is -4.02%.

What about the inhibition [35] of the same compound?
Its inhibition is 24.1%.

What about the inhibition [36] of the same compound?
The inhibition was -8%.

What about the inhibition [37] of the same compound?
The inhibition was -1%.

What about the inhibition [38] of the same compound?
Its inhibition is 1%.

`C[C@H](O)c1nc(Cn2nc(-c3ccc(Cl)cc3)n(C[C@H](O)C(F)(F)F)c2=O)nn1-c1cccc(Cl)c1` [PECAVAPTAN] was tested. Which inhibition [1] did it give?
Its inhibition is -1.31%.

What about the inhibition [2] of the same compound?
Its inhibition is -0.62%.

And the inhibition [3]?
Its inhibition is 5.63%.

And the inhibition [4]?
The inhibition was 4.6%.

What about the inhibition [5] of the same compound?
The inhibition was -8.59%.

And the inhibition [6]?
The inhibition was 7.3%.

And the inhibition [7]?
The inhibition was -1.79%.

What about the inhibition [8] of the same compound?
The inhibition was -7.72%.

What about the inhibition [9] of the same compound?
Its inhibition is 10.4%.

What about the inhibition [10] of the same compound?
Its inhibition is 2.6%.

And the inhibition [11]?
The inhibition was 2.09%.

And the inhibition [12]?
The inhibition was -3.97%.

What about the inhibition [13] of the same compound?
Its inhibition is -1.69%.

What about the inhibition [14] of the same compound?
Its inhibition is 11.3%.

And the inhibition [15]?
The inhibition was -9.95%.

And the inhibition [16]?
Its inhibition is 3.19%.

And the inhibition [17]?
The inhibition was 6.17%.

And the inhibition [18]?
Its inhibition is 0.99%.

What about the inhibition [19] of the same compound?
The inhibition was 3.06%.

And the inhibition [20]?
Its inhibition is -3.46%.

What about the inhibition [21] of the same compound?
The inhibition was 7.5%.

What about the inhibition [22] of the same compound?
The inhibition was -2.94%.

And the inhibition [23]?
The inhibition was 1.42%.

And the inhibition [24]?
The inhibition was -0.09%.

What about the inhibition [25] of the same compound?
Its inhibition is -6.13%.

What about the inhibition [26] of the same compound?
Its inhibition is -3.07%.

And the inhibition [27]?
Its inhibition is 4.07%.

What about the inhibition [28] of the same compound?
Its inhibition is -4.1%.

What about the inhibition [29] of the same compound?
The inhibition was -2.96%.

And the inhibition [30]?
The inhibition was 5.09%.

And the inhibition [31]?
The inhibition was -6.4%.

And the inhibition [32]?
The inhibition was 10.5%.

And the inhibition [33]?
Its inhibition is 4.87%.

What about the inhibition [34] of the same compound?
Its inhibition is 3.65%.

And the inhibition [35]?
The inhibition was 27%.

What about the inhibition [36] of the same compound?
The inhibition was 26%.

What about the inhibition [37] of the same compound?
Its inhibition is -1%.

And the inhibition [38]?
The inhibition was -1%.

Reference: ChEMBL document CHEMBL5463729, “Data for DCP probe BAY 1753011” (2023)
